Laboratory results reported in PubChem BioAssay (NCI).
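Growth conditions: 96-well plates. Treatment: test compound, 48 hours, 5 concentrations. Analysis: linear interpolation between bracketing concentrations; unreached endpoints set to highest concentration. The concentration for 50% growth inhibition is given as GI50. TGI: total growth inhibition.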

Key:
Experiment in all cases: inhibition of tumour cell growth, NCI panel, 48 h
[1] = tested on: KM12 colon
[2] = tested on: HS 578T breast
[3] = tested on: ACHN renal
[4] = tested on: T-47D breast
[5] = tested on: M14 melanoma
[6] = tested on: SR leukemia
[7] = tested on: OVCAR-8 ovarian
[8] = tested on: NCI/ADR-RES ovarian
[9] = tested on: UACC-62 melanoma
[10] = tested on: SN12C renal

CC1=NN(c2cccc(Cl)c2)C2(C1=Cc1ccc(N(C)C)cc1)C(Cl)C(=O)N2c1nc2ccccc2s1 (configuration not stated) was tested, and the TGI [1] was 38.5 µM, the TGI [2] was greater than 100 µM and the TGI [3] was greater than 100 µM. It also gave a TGI [4] greater than 100 µM, a TGI [5] greater than 100 µM and a TGI [6] greater than 100 µM. For the same compound, the TGI [7] was greater than 100 µM and the TGI [8] was greater than 100 µM.

With COc1ccccc1Cn1c2c(c3cc(O)ccc31)C(=O)c1ccccc1C2=O the TGI [1] was greater than 100 µM, the TGI [2] was greater than 100 µM and the TGI [9] was 82.9 µM. The TGI [10] was greater than 100 µM, the TGI [5] was greater than 100 µM and the TGI [6] was greater than 100 µM. It also gave a TGI [7] of 61.9 µM and a TGI [8] of 40.4 µM.

With CCOP(=O)(CC1OC(CO)C(O)C1O)OCC (configuration not stated) the TGI [1] was greater than 100 µM, the TGI [2] was greater than 100 µM and the TGI [9] was greater than 100 µM. The TGI [10] was greater than 100 µM, the TGI [3] was greater than 100 µM and the TGI [4] was greater than 100 µM. It also gave a TGI [5] greater than 100 µM and a TGI [6] greater than 100 µM.

C/C(=C\CO)CC[C@@H]1[C@@]2(C)CCCC(C)(C)[C@@H]2CC[C@@]1(C)O showed a TGI [1] of 43 µM, a TGI [2] of 56.4 µM and a TGI [9] of 27.1 µM. For the same compound, the TGI [10] was 33.8 µM, the TGI [3] was greater than 100 µM and the TGI [4] was 51.3 µM. The TGI [5] was 53.6 µM, the TGI [7] was 31.8 µM and the TGI [8] was 31.9 µM.

In the case of O=C(O)C(CS)N=Cc1nc(-c2ccccc2)oc1O (configuration not stated), the TGI [9] is reported as greater than 100 µM, the TGI [10] is reported as greater than 100 µM and the TGI [3] is reported as greater than 100 µM. The TGI [5] was greater than 100 µM, the TGI [6] was greater than 100 µM and the TGI [7] was greater than 100 µM.

For CN(C)CN1C(=O)/C(=N\n2c(-c3ccncc3)n[nH]c2=S)c2ccccc21, the TGI [1] was greater than 100 µM, the TGI [2] was greater than 100 µM and the TGI [9] was greater than 100 µM. It also gave a TGI [10] greater than 100 µM, a TGI [3] greater than 100 µM and a TGI [4] greater than 100 µM. The TGI [5] was 70.4 µM, the TGI [7] was 65.2 µM and the TGI [8] was greater than 100 µM.

Work on O=c1n(CCCN2CCOCC2)nc2n1-c1ccc3ccccc3c1SC2 yielded a TGI [1] greater than 100 µM, a TGI [2] greater than 100 µM and a TGI [9] of 47.2 µM. For the same compound, the TGI [10] was greater than 100 µM, the TGI [4] was greater than 100 µM and the TGI [6] was greater than 100 µM. For the same compound, the TGI [7] was greater than 100 µM and the TGI [8] was greater than 100 µM.

CCc1ccc(OCc2ccccc2C(=O)Nc2ccc3nc(C)cc(N)c3c2)cc1 was tested, and the GI50 [2] was 1.79 µM, the TGI [2] was 4.38 µM and the GI50 [9] was 1.6 µM. It also gave a TGI [9] of 3.02 µM, a GI50 [10] of 1.51 µM and a TGI [10] of 3.02 µM. The GI50 [3] was 1.73 µM, the TGI [3] was 3.13 µM and the GI50 [7] was 1.68 µM. It also gave a TGI [7] of 4.61 µM, a GI50 [8] of 1.75 µM and a TGI [8] of 4.2 µM.

In the case of O=C(O)CCSc1ncnc2nc[nH]c12, the TGI [1] is reported as greater than 100 µM, the TGI [2] is reported as greater than 100 µM and the TGI [9] is reported as greater than 100 µM. The TGI [10] was greater than 100 µM, the TGI [3] was greater than 100 µM and the TGI [4] was greater than 100 µM. For the same compound, the TGI [5] was greater than 100 µM, the TGI [7] was greater than 100 µM and the TGI [8] was greater than 100 µM.

COc1cccc(Nc2nc3c([nH]2)c(=O)n(C)c(=O)n3C)c1 gave a TGI [1] greater than 10 µM, a TGI [9] greater than 10 µM and a TGI [10] greater than 10 µM. For the same compound, the TGI [4] was greater than 10 µM, the TGI [5] was greater than 10 µM and the TGI [6] was greater than 10 µM. For the same compound, the TGI [7] was greater than 10 µM.

In the case of O/N=C/[C@H]1COC2(CCCCC2)O1, the TGI [1] is reported as greater than 100 µM, the TGI [2] is reported as greater than 100 µM and the TGI [9] is reported as greater than 100 µM. For the same compound, the TGI [10] was greater than 100 µM, the TGI [3] was greater than 100 µM and the TGI [5] was greater than 100 µM. For the same compound, the TGI [7] was greater than 100 µM and the TGI [8] was greater than 100 µM.

Work on C[C@@](Br)(C(=O)O)[C@H](Br)C(=O)O yielded a TGI [1] greater than 100 µM, a TGI [9] greater than 100 µM and a TGI [10] greater than 100 µM. For the same compound, the TGI [3] was greater than 100 µM, the TGI [4] was greater than 100 µM and the TGI [5] was greater than 100 µM. The TGI [7] was greater than 100 µM and the TGI [8] was greater than 100 µM.

In the case of COC(=O)[C@@H]1[C@H]2CC[C@]3(C)[C@@H](OC(C)=O)CC[C@H]3[C@@H]2CC[C@H]1C1(C)SCCS1, the TGI [1] is reported as 74.2 µM, the TGI [2] is reported as 74.4 µM and the TGI [9] is reported as greater than 100 µM. It also gave a TGI [10] of 37 µM, a TGI [3] greater than 100 µM and a TGI [4] of 56.8 µM. For the same compound, the TGI [5] was 44 µM, the TGI [7] was 70.6 µM and the TGI [8] was 57.1 µM.

With Cn1c(=O)c2[nH]c(Nc3cccc(Cl)c3)nc2n(C)c1=O the TGI [1] was greater than 10 µM, the TGI [9] was greater than 10 µM and the TGI [10] was greater than 10 µM. It also gave a TGI [4] of 8.72 µM, a TGI [5] greater than 10 µM and a TGI [7] greater than 10 µM.

For CC1=[N+]([O-])C2(CCCC2)N(O)C1(C)C, the TGI [1] was greater than 100 µM, the TGI [2] was greater than 100 µM and the TGI [9] was greater than 100 µM. It also gave a TGI [10] greater than 100 µM, a TGI [3] greater than 100 µM and a TGI [4] greater than 100 µM. It also gave a TGI [5] greater than 100 µM, a TGI [7] greater than 100 µM and a TGI [8] greater than 100 µM.

In the case of CCOP(=O)(COCCn1nc(Br)c(=O)[nH]c1=O)OCC, the TGI [1] is reported as greater than 100 µM, the TGI [2] is reported as greater than 100 µM and the TGI [10] is reported as greater than 100 µM. It also gave a TGI [3] greater than 100 µM, a TGI [4] greater than 100 µM and a TGI [5] greater than 100 µM. The TGI [6] was greater than 100 µM, the TGI [7] was greater than 100 µM and the TGI [8] was greater than 100 µM.

O=c1cccc2n1CC1CNCC2C1 (configuration not stated) was tested, and the TGI [1] was greater than 100 µM, the TGI [2] was greater than 100 µM and the TGI [9] was greater than 100 µM. For the same compound, the TGI [10] was greater than 100 µM, the TGI [3] was greater than 100 µM and the TGI [5] was greater than 100 µM. For the same compound, the TGI [7] was greater than 100 µM and the TGI [8] was greater than 100 µM.

Cc1ccc(S(=O)(=O)N2CCc3cc(O)c([N+](=O)[O-])cc32)cc1 gave a TGI [1] greater than 100 µM, a TGI [2] greater than 100 µM and a TGI [9] greater than 100 µM. For the same compound, the TGI [10] was greater than 100 µM, the TGI [3] was greater than 100 µM and the TGI [4] was greater than 100 µM. The TGI [5] was greater than 100 µM, the TGI [7] was greater than 100 µM and the TGI [8] was greater than 100 µM.

O=C1c2cc3c(cc2-c2c1c1cc(F)c(F)cc1c(=O)n2C[C@H](O)CO)OCO3 gave a GI50 [1] of 0.123 µM, a TGI [1] greater than 100 µM and a GI50 [2] of 0.939 µM. It also gave a TGI [2] greater than 100 µM, a GI50 [9] of 0.0153 µM and a TGI [9] of 0.0678 µM. It also gave a GI50 [10] of 0.033 µM, a TGI [10] of 0.324 µM and a TGI [6] greater than 100 µM. The GI50 [7] was 0.0724 µM, the TGI [7] was greater than 100 µM and the GI50 [8] was 0.0396 µM. The TGI [8] was 0.468 µM.

CN(C)C(=O)/N=C1\SC(=Nc2ccccc2)C(=Nc2ccccc2)N1c1ccc([N+](=O)[O-])cc1 gave a TGI [1] greater than 100 µM, a TGI [2] greater than 100 µM and a TGI [9] greater than 100 µM. The TGI [10] was greater than 100 µM, the TGI [4] was greater than 100 µM and the TGI [5] was greater than 100 µM. The TGI [6] was greater than 100 µM, the TGI [7] was greater than 100 µM and the TGI [8] was greater than 100 µM.

For CCc1nc2c([nH]1)C(=O)c1ccccc1C2=O, the TGI [1] was greater than 100 µM, the TGI [9] was greater than 100 µM and the TGI [10] was greater than 100 µM. It also gave a TGI [3] greater than 100 µM, a TGI [5] greater than 100 µM and a TGI [6] greater than 100 µM. It also gave a TGI [7] greater than 100 µM.

In the case of O=c1ccn([C@@H]2C=C(CO)[C@@H](O)[C@H]2O)c(=O)[nH]1, the TGI [1] is reported as greater than 625 µM, the TGI [9] is reported as greater than 625 µM and the TGI [10] is reported as greater than 625 µM. The TGI [7] was greater than 625 µM and the TGI [8] was greater than 625 µM.

COc1ccc(CCn2ccc(=O)c(O)c2C)cc1OC gave a TGI [1] greater than 100 µM, a TGI [2] of 0.0907 µM and a TGI [3] greater than 100 µM. It also gave a TGI [4] of 85.7 µM, a TGI [5] of 36.7 µM and a TGI [6] greater than 100 µM. The TGI [7] was greater than 100 µM and the TGI [8] was 57.9 µM.
